Data set [1] deals with bacterial topoisomerase IV. Further details: method as in PMID 21080016. The following applies: cited from earlier work.
Data set [2] concerns T. gondii RH strain tachyzoites. Put plainly: [3H]uracil incorporation assay of T. gondii proliferation in L929 host cells. It counts as cell-based. The following applies: Toxoplasma gondii, L929, read-out: IC50 (50% of T. gondii proliferation inhibition in vitro).
For data set [3], the system named is Gram-positive bacterial species and clinical isolates of Staphylococcus aureus. Further details: method as in PMID 23428849. The following applies: all test microorganisms; cited from earlier work.
Data set [4] concerns T. gondii RH strain tachyzoites. Kind of data set: [3H]uracil incorporation assay of T. gondii proliferation in L929 host cells. Format: cell-based, Toxoplasma gondii. The following applies: assay A [3H]uracil incorporation, vs untreated blank. How it is done: In the next step of our studies, the prepared 1,4-disubstituted thiosemicarbazides (series 1–3) were used to assess the inhibition of T. gondii growth in vitro. For this purpose, intracellular parasites (tachyzoites) of RH strain were incubated with different concentrations of the thiosemicarbazides ranging from 1 to 100 µg/mL. Inhibition of the parasite growth was monitored by measuring the specific incorporation of [^3H]uracil in the parasite’s nucleic acids.
The tachyzoites of T. gondii strain RH – intraspecies type I (ATCC_ Number 50174™) were maintained through passages on female C57BL/6 (H-2^b) and BALB/c (H-2^d) mice with genetically determined high and low susceptibility (respectively) to T. gondii infection (10–12 weeks old). Tachyzoites washed out from the peritoneum cavity were once expanded in vitro on L929 cells.
L929, (2 × 10^4 cells/100 µL/well) were grown in complete medium (IMDM) on 96-well plates. After 24 h incubation, a medium was removed and then T. gondii RH tachyzoites, suspended in culture medium supplemented with 1.0, 5.0, 10.0, 50.0 and 100.0 μg/mL 1,4-disubstituted thiosemicarbazides (1g, 2b, 2m, 3d, 3l) and as a control-sulfadiazine, were added (2 × 10^5 tachyzoites/200 µL/well) to the cell monolayers. After subsequent 48 h incubation 1 µCi/well of [^3H] uracil (Moravek Biochemicals Inc., Brea, CA, USA) was applied to each microculture for further 18–20 h. The amount of the isotope incorporated into the parasite nucleic acid pool, corresponding to the parasite growth, was measured by liquid scintillation counting with 1450 Microbeta Plus Liquid Scintillation Counter (Wallac Oy, Turku, Finland).

The subject of data set [5] is L929 cells. Kind of data set: MTT cell viability assay (ISO 10993-5). It counts as cell-based, mouse. The following applies: L929 cells. How it is done:
(§1) Cell line L929 (ATTC® Catalog No. […] The MTT assay was used according to international standards: ISO 10993-5:2009(E), Biological evaluation of medical devices, Part 5: Tests for in vitro cytotoxicity. […] Then, 1 mg/mL MTT (50 μL/well) was added to each well and incubated at 37 °C, 10% CO2 for 2 h. Mitochondrial dehydrogenases of viable cells reduced the yellowish water-soluble MTT to water-insoluble formazan crystals, which were solubilized with dimethyl sulfoxide (DMSO). The cell culture medium was aspirated cautiously, after which 150 μL DMSO was added to each well and mixed thoroughly. Optical density (OD) was read on the ELISA reader (Multiskan EX, Labsystems, Vienna, VA, USA) at 550 nm. […] All experiments were performed in triplicate.
In general terms: Tetrazolium dyes change colour on reduction, which living cells bring about.

Data set [6] is described as follows: MTT cell viability assay (ISO 10993-5). It counts as cell-based, mouse. The following applies: mouse, L929 mouse fibroblast cells, 24 h, ± SD. How it is done:
as §1

Data set [7] deals with T. gondii RH strain. Put plainly: quantitative real-time PCR (B1 gene) of T. gondii in infected L929 cells. The following applies: assay B qRT-PCR, L929 host cells. Format: cell-based, Toxoplasma gondii. The method, then: T. gondii genomic DNA was isolated from the tachyzoites of RH strain with Wizard® SV Genomic DNA Purification System (Promega, Madison, WI, USA) according to the manufacturer’s instruction. The DNA concentration and purity were measured using a NanoPhotometer (Implen, München, Germany), while the integrity of the extracted DNA was tested using an ethidium bromide-stained agarose gel. DNA was used for the detection and quantitationof T. gondii in analyzed samples and it was stored at −20 °C until use.
A quantitative real-time PCR (qRT-PCR) assay, targeting B1 gene was performed to detect and to quantitate T. gondii in analyzed samples (1g, 2b, 2m, 3d, 3l and sulphadiazine) according to the modified protocol of Wahab et al.. […] Amplification was carried out on a 7900HT real-time PCR system (Applied Biosystems, Carlsbad, CA, USA). The reaction mixtures (25 µL) consisted of 1x TaqMan PCR master mix supplemented with ROX (Applied Biosystems), 300 nM probe, 900 nM of each primer and 2 µL of template DNA. For quantification a standard curve was constructed using 10-fold serial dilutions of DNA extracted from a known number of T. gondii. The cycling parameters were: 50 °C for 2 min, initial activation at 95 °C for 10 min, and 45 two-step cycles of 95 °C for 15 s and 60 °C for 1 min. All samples were analyzed in triplicate.
For orientation: Real-time PCR tracks product formation cycle by cycle.

Data set [8] concerns infected cells. Also on record: method as in PMID 20541294. The following applies: read-out: LC50 for infected cells; cited from earlier work.

Converted amounts (≈) assume the structure as drawn.

For orientation: viability means a read-out of living cells in per cent, often relative to untreated cells.

`O=C(NC(=S)NNC(=O)c1cc2ccccc2[nH]1)c1ccccc1` [4-benzoyl-1-(indol-2-yl)carbonyl-thiosemicarbazide]: in data set [1], the IC50 is 14 µg/mL (≈ 41.4 µM).

In the case of `Cc1nnsc1C(=O)NNC(=S)Nc1ccc(F)cc1F` [Compound 3l], in data set [2], the IC50 came out at 92.3 µg/mL (≈ 280 µM). For the same compound, in data set [3], the antibacterial screening result was “ineffective”. Besides, the “intensity of T. gondii proliferation” value in data set [4] (1 µg/mL) was 84.59 ± 16.61%; in data set [4] (5 µg/mL) it was 85.76 ± 19.71%; in data set [4] (10 µg/mL), 103.21 ± 19.27%; in data set [4] (50 µg/mL), 88.34 ± 14.40 %; in data set [4] (100 µg/mL), 37.20 ± 7.47 %; in data set [7] (50 µg/mL) it was 89.32 ± 15.74 %. Besides, the “intensity of T. gondii proliferation” value in data set [7] (100 µg/mL) came out at 14.08 ± 3.35 %. Moreover, the “CC30 (concentration required for 30% proliferation inhibition in vitro)” value in data set [5] stood at 285.52 µg/mL. In addition, in data set [6], the viability at 24 h, 1 µg/mL was 96.54 ± 0.69%. In addition, the viability at 24 h, 5 µg/mL in data set [6] was 92.87 ± 0.23%. Further, the viability at 24 h, 10 µg/mL in data set [6] stood at 95.89 ± 0.39%. Also, the viability at 24 h, 50 µg/mL in data set [6] turned out to be 99 ± 10%. The viability at 24 h, 100 µg/mL in data set [6] amounted to 89.5 ± 3.44%. Further, the viability at 24 h, 500 µg/mL in data set [6] came to 48 ± 10.1%.

For the compound `Nc1ccc(S(=O)(=O)Nc2ncccn2)cc1` [sulfadiazine, reference compound], the IC50 in data set [2] is more than 500 µg/mL. In addition, the “intensity of T. gondii proliferation” value in data set [7] (100 µg/mL) is listed as 63.99 ± 10.58 %. Besides, in data set [8], the CC50 was more than 10 mM.

Turning to `Cc1nc[nH]c1C(=O)NNC(=S)NC(=O)c1ccccc1` [4-benzoyl-1-(4-methyl-imidazol-5-yl)carbonylthiosemicarbazide], in data set [1], the IC50 is 90 µg/mL (≈ 297 µM).

On to `Cc1nnsc1C(=O)NNC(=S)Nc1ccccc1Br` [Compound 3d], for which, in data set [2], the IC50 worked out at 74.9 µg/mL (≈ 201 µM). For the same compound, the antibacterial screening entry in data set [3] was “ineffective”. Also, the “intensity of T. gondii proliferation” value was 90.03 ± 14.61% in data set [4] (1 µg/mL); 84.64 ± 15.68% in data set [4] (5 µg/mL); 83.84 ± 19.01% in data set [4] (10 µg/mL); 63.82 ± 5.32 % in data set [4] (50 µg/mL); 36.52 ± 5.16 % in data set [4] (100 µg/mL); 75.13 ± 10.10 % in data set [7] (50 µg/mL). In data set [7] (100 µg/mL), the “intensity of T. gondii proliferation” value was 25.56 ± 6.32 %. Further, the “CC30 (concentration required for 30% proliferation inhibition in vitro)” value in data set [5] worked out at 242.56 µg/mL. Further, the viability at 24 h, 1 µg/mL in data set [6] was determined as 102 ± 3.89%. Moreover, the viability at 24 h, 5 µg/mL in data set [6] turned out to be 99.14 ± 0.82%. Also, the viability at 24 h, 10 µg/mL in data set [6] stood at 97.5 ± 5.98%. For the same compound, the viability at 24 h, 50 µg/mL in data set [6] was 90.9 ± 6.71%. Moreover, the viability at 24 h, 100 µg/mL in data set [6] came to 79.5 ± 5.82%. The viability at 24 h, 500 µg/mL in data set [6] worked out at 41.5 ± 5.16%.

Consider `NC(=O)NO` [hydroxyurea], for which the CC50 in data set [8] is more than 10 mM.

Source of the values: article PMC6290556, “1,4-Disubstituted Thiosemicarbazide Derivatives are Potent Inhibitors of Toxoplasma gondii Proliferation” (Molecules, 2014).
